The results in this text go back to ChEMBL document CHEMBL1201862, “PubChem BioAssay data set” (2004).

Test [1] is described as follows: inhibitors of SNCA 5'UTR-driven reporter translation, confirmation, H4 neuroglioma cells, luminescence (AID 1988). Format: functional, cell-based.
Test [2] is described as follows: inhibitors of firefly luciferase expression or activity, dose response, H4 neuroglioma cells, luminescence (AID 1990). In kind it is functional, cell-based.
Test [3] can be described thus: Luminescence Cell-Based Dose Response HTS to Identify Inhibitors of 5'UTR Stem-Loop Driven Prion Protein mRNA Translation in H4 Neuroglioblastoma Cells. [Related pubchem assays: 1827 (Project Summary), 1813 (Primary HTS)]. In kind it is functional.
The nature of test [4]: Luminescence Cell-Based Dose Retest to Confirm Inhibitors of Cancer Stem Cells. [Related pubchem assays (depositor defined):AID2717, AID2721]. Format: functional. Particulars: Homo sapiens.
The target of the next test is Cytochrome P450 2D6 (Homo sapiens, UniProt P10635).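 Further: CYP2D6 member of a cytochrome P450 panel assay.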
Chain of Cytochrome P450 2D6 (P10635 whole entry): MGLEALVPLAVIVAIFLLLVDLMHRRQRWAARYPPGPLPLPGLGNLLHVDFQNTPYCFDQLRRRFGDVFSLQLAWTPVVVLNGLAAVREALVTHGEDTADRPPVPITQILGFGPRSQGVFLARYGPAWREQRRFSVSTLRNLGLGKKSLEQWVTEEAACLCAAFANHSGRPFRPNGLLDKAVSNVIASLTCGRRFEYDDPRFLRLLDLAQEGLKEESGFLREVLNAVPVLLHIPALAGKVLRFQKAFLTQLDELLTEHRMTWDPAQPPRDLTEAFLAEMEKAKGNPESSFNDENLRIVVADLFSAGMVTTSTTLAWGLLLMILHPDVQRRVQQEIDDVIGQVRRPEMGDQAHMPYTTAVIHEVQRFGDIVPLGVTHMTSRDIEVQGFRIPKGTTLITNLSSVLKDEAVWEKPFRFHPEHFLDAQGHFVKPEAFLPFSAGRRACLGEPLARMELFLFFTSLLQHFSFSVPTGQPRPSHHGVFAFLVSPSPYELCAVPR
The next test is described as follows: cells. In kind it is functional.
Test [5] deals with T1, Corticotropin-releasing factor receptor 2/Corticotropin-releasing factor-binding protein (Homo sapiens, UniProt P24387+Q13324).
T1 sequence (Q13324 whole entry): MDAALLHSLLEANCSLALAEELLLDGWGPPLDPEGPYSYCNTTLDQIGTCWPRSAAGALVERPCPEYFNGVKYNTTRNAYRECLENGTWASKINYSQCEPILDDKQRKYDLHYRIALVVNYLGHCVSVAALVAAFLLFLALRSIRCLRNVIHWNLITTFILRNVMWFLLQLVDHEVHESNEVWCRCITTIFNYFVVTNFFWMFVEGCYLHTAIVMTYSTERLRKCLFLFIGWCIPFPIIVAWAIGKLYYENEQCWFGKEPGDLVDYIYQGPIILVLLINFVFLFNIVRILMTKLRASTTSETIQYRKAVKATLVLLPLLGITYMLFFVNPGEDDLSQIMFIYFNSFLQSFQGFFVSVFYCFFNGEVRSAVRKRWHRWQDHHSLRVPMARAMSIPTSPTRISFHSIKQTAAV
T1 sequence (P24387 whole entry): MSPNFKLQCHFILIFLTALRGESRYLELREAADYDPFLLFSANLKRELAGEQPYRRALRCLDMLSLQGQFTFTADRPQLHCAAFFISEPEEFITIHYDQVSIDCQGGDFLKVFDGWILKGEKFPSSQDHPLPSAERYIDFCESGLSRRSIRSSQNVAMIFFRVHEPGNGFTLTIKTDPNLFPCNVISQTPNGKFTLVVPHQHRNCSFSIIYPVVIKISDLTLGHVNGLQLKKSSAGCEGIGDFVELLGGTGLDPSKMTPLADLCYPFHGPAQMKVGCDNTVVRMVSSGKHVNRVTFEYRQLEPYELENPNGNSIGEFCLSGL
Kind of test: activators of CRF receptor 2 with binding protein – uHTS hits, confirmation (AID 602473). In kind it is functional. Particulars: read-out: EC50_Mean.

The next test concerns the target Cytochrome P450 2C19 (Homo sapiens, UniProt P33261). Kind of test: Cytochrome panel assay with activity outcomes. Panel member name: p450-cyp2c19 Compounds with AC50 equal or less than 10 uM are considered active. In kind it is functional. Particulars: read-out: AC50.
The nature of test [6]: cytotoxicity toward DRD oncogenic fibroblasts, dose response, cell-based, non-viral oncogenic, luminescence (AID 1934). Format: functional. Particulars: Homo sapiens.
For test [7], the system named is BJ. Kind of test: cells. Format: functional, cell-based. Particulars: Homo sapiens.
Test [8] has as its system BJ. Kind of test: cytotoxicity toward BJ-TERT fibroblasts, dose response, cell-based, RAS-independent, luminescence (AID 1933). Format: functional. The conditions noted are these: Homo sapiens.
Test [9] concerns BJ. Nature of the test: cytotoxicity toward BJ-TERT-LT-ST fibroblasts, dose response, cell-based, RAS-independent, luminescence (AID 1935).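 Further: BJ fibroblasts immortalized with TERT plus LT and ST oncogenes.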 In kind it is functional. The conditions noted are these: Homo sapiens.
For test [10], the target named is T2, Rac GTPase-activating protein 1 (Homo sapiens, UniProt Q9H0H5).
T2 sequence (Q9H0H5 whole entry): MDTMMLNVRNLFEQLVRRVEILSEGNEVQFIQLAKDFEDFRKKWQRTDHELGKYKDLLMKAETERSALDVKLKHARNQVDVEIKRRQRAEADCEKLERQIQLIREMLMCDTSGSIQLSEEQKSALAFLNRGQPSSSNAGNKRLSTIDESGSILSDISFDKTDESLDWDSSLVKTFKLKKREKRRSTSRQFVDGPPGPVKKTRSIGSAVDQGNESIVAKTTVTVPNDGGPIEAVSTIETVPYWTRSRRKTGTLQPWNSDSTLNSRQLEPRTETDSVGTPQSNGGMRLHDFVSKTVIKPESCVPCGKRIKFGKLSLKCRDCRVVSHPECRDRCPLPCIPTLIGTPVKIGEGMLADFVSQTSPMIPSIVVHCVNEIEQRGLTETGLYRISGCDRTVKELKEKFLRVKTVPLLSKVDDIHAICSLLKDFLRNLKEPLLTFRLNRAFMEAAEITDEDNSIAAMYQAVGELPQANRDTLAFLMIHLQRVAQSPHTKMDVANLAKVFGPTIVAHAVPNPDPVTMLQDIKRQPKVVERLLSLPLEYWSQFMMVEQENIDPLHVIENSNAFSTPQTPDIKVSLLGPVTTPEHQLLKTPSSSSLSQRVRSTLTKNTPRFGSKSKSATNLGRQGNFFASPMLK
Nature of the test: MgcRacGAP GTPase-activating activity inhibitors, confirmation, biochemical, ADP Hunter fluorescence, primary and confirmatory (AID 624330). In kind it is functional.

Test [11] is described as follows: Luminescence Cell-Based Dose Response HTS to Identify Activators of Luciferase Translation or Activity in H4 […] Cells. [Related pubchem assays: 1829 (Project Summary), 1814 (Primary HTS)]. Format: functional.
The subject of a further test is H4. Kind of test: Luminescence Cell-Based Dose Response HTS to Identify Activators of 5'UTR Stem-Loop Driven Prion Protein mRNA Translation in H4 Neuroglioblastoma Cells. [Related pubchem assays: 1829 (Project Summary), 1814 (Primary HTS)]. Particulars: Homo sapiens. In kind it is functional.

Calls of active or inactive are those of the source.

Chain of Cytochrome P450 2C19 (P33261 whole entry): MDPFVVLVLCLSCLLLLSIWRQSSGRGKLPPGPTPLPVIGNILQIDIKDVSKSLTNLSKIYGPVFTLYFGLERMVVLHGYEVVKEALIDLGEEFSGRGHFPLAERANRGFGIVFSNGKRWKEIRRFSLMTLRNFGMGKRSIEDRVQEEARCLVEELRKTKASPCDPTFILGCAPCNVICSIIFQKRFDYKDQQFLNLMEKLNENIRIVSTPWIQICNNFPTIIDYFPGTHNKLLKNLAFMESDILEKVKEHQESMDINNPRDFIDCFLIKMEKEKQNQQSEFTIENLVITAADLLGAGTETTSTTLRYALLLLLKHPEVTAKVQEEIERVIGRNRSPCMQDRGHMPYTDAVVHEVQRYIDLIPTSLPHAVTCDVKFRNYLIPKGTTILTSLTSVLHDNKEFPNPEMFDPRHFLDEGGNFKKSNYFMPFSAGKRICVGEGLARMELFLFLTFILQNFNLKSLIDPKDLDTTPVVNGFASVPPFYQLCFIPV

For the molecule `CCc1nc(SCC(=O)NC2CC2)c2c(C)c(C)sc2n1`, the EC50 in test [1] was > 120 µM (not active); in test [2], 16.7 µM (active); in [3] it was > 120 µM (not active).

For the molecule `Cc1cc(C)nc(NC(=NC(=O)Nc2ccc(Cl)cc2)NCCc2c[nH]c3ccccc23)n1`, the AC50 in [4] is 2.28 µM (active).

As to `Cc1cc(-c2ccc(/C=N/n3cnnc3)o2)c([N+](=O)[O-])cc1C`, on Cytochrome P450 2D6, the AC50 was 11.2 µM (inconclusive).

Turning to `O=c1cc(-c2ccncc2)oc2c1ccc1ccccc12`, the IC50 in the test “cells” is 17.9 µM (active).

On to `Cc1ccc(NC(=O)/C=C/c2ccc3c(c2)OCO3)nc1`, for which the AC50 in [4] was 1.08 µM (active).

Regarding `O=C1NCCc2c1[nH]c1ccc([N+](=O)[O-])cc21`, the results for the EC50 in [1], in test [2] and in [3] were 16.3 µM (active), 12.9 µM (active) and 15.6 µM (active), respectively.

In the case of `COc1ccc(C(=O)O/N=C/c2c(C(F)(F)F)nn(C)c2SCc2ccccc2Cl)cc1`, the EC50 is 12 µM (active) in test [1], 17 µM (active) in test [2] and 12.8 µM (active) in test [3].

Regarding `CC(=O)c1cc2c(ccc3ccccc32)oc1=O`, in “cells”, the IC50 is 15.4 µM (active).

For the molecule `O=C(NCCc1ccccc1)c1cnc2ccccc2c1O`, the EC50 in test [5] is > 53 µM (inactive).

For `Cc1cnc(CNc2nc(-c3ccccc3C(F)(F)F)nc3ccccc23)cn1`, the AC50 on Cytochrome P450 2C19 is 39.8 µM (inconclusive); on Cytochrome P450 2D6 it was 25.1 µM (inconclusive).

In the case of `O=C(O)[C@@H]1C[C@@H](C(=O)O)N1`, the AC50 at Cytochrome P450 2D6 is 39.8 µM (inconclusive).

As for `CCOc1ccc(C2C(C(=O)O)c3ccccc3C(=O)N2CCN2CCOCC2)cc1` (stereo not given), the AC50 on Cytochrome P450 2D6 is 25.1 µM (inconclusive).

In the case of `COc1ccccc1N1CCN(C(=O)CCc2nnc3ccc(N4CCC(C)CC4)nn23)CC1`, the EC50 in test [1] was 17.3 µM (active); in test [2], 11.2 µM (active); in test [3], > 120 µM (not active).

`COc1ccc2sc(-c3ccc(N(C)C)cc3)c(C#Cc3cncn3C)c2c1`: the concentration at half-maximal activity (AC50) in [4] is 1.11 µM (active).

Regarding `Cc1cc(C)c(NC(=O)CSCc2c(C)noc2C)c(C)c1`, the AC50 in test [4] is > 195 µM (inactive).

Turning to `Cc1ccc(OC(=O)c2ccc(Br)o2)cc1`, in “cells”, the IC50 was 18.5 µM (active).

Turning to `Fc1ccc(Br)cc1C1C=C(c2ccc(Br)cc2)Nc2ncnn21` (stereo not given), the EC50 in [5] was > 53 µM (inactive).

Regarding `COc1ccc(-c2nc(CS(=O)(=O)CC(=O)NCCCc3ccccc3)c(C)o2)cc1`, the EC50 in test [1] was 14.5 µM (active); in test [2] it was > 120 µM (not active); in [3] it was > 120 µM (not active).

Consider `CCc1ccc(C(=O)COC(=O)c2ccc(Cl)nc2)cc1`, for which, in the test “cells”, the IC50 is > 50 µM (active).

Take `Cc1ccc(/C=C2/C(=O)ON=C2c2ccccc2)o1`: the EC50 in test [6] was 12.2 µM (active); with BJ [7], 18.3 µM (active); in the test on BJ [8], 12.8 µM (active); in the test on BJ [9] it was > 150 µM (inconclusive). Besides, the IC50 in test [10] is 36.9 µM (active).

`COC(=O)C1=C(C)N=C(C)/C(=C(/O)O[C@@H]2CCCN(Cc3ccccc3)C2)[C@@H]1c1cccc([N+](=O)[O-])c1`: the EC50 was 9.3 µM (active) in [1], 12 µM (active) in test [2] and 14.6 µM (active) in test [3].

In the case of `COc1ccc(-c2c(-c3cc(OC)cc(OC)c3)n(C)c3ccc(-c4cc(F)cc(OC)c4)cc23)cc1`, the AC50 in test [4] is > 195 µM (inactive).

For the molecule `CCOC(=O)C1=C(C)N=C(C)/C(=C(/O)OCC)C1c1ccccc1/C=C/C(=O)OC(C)(C)C` (stereo not given), the AC50 in test [4] is 3.4 µM (active).

Take `CC(C)c1ccc(C2C3=C(O)OCC3=Nc3cc4c(cc32)OCO4)cc1` (stereo not given): the EC50 is 0.88 µM (active) in test [6], 5.49 µM (inconclusive) in the test on BJ [7], 0.746 µM (inconclusive) with BJ [8] and 0.386 µM (inconclusive) with BJ [9].

`CCOC(=O)COc1ccc(C(=O)Nc2cccc(Cl)c2C)cc1`: the IC50 in “cells” was 0.52 µM (active).

Regarding `CC(C)OCCCNc1nc2c(c(=O)n(Cc3ccccc3F)c(=O)n2C)n1C`, the EC50 in test [1] was > 120 µM (not active); in test [2] it was 16.8 µM (active); in test [3] it was > 120 µM (not active).

As to `CCOC(=O)C1CSC(CC(=O)Nc2ccc(Cl)c(Cl)c2)C(=O)N1` (stereo not given), in the test “cells”, the IC50 is 36.2 µM (active).

As for `CN(C)S(=O)(=O)c1ccc(C(=O)Oc2ccccc2)cc1`, the IC50 in the test “cells” is 7.22 µM (active).

For `O=C(Cn1cc([N+](=O)[O-])nc1[N+](=O)[O-])N1CCN(c2ccccc2)CC1`, in the test “cells”, the IC50 is 7.01 µM (active).

As for `COc1ccccc1N1CCN(C(=O)c2ccc([N+](=O)[O-])s2)CC1`, in “cells”, the concentration for half-maximal inhibition (IC50) is 46.4 µM (active).

Consider `CCOc1cccc(NC(=O)CSc2nc(C)c3c(c2C#N)CCCC3)c1`, for which the half-maximal activity concentration (AC50) was 0.178 µM (inconclusive) on Cytochrome P450 2C19 and 0.0794 µM (inconclusive) on Cytochrome P450 2D6.

With `COc1ccc2cc(-c3csc(-c4cccnc4)n3)ccc2c1`, the EC50 in test [11] is 0.108 µM (inconclusive); in the test on H4, 22 µM (active).

Regarding `CN(C)C(=O)c1ccc(-c2nccc(NCc3cccs3)n2)cc1`, the AC50 on Cytochrome P450 2C19 and at Cytochrome P450 2D6 was 20 µM (inconclusive) throughout.

For `Cc1cc(C(=O)COc2cccc3cccnc23)c(C)n1C`, the EC50 in test [5] is > 53 µM (inactive). Further, the half-maximal inhibitory concentration (IC50) in “cells” is 6.66 µM (active).

On to `CN1CCN(CC(=O)Nc2ccc([N+](=O)[O-])cc2C(=O)c2ccccc2)CC1`, for which the EC50 (in [6]; in the test with BJ [7]; in the test with BJ [8]; in the test with BJ [9]) was > 150 µM (not active) in each case.

Take `O=C(c1n[nH]c(=O)c2ccccc12)N1CCN(C2c3ccccc3-c3ccccc32)CC1`: the half-maximal activity concentration (AC50) on Cytochrome P450 2D6 is 31.6 µM (inconclusive).

With `Clc1ccccc1-c1nc(NCCN2CCOCC2)c2ccccc2n1`, the AC50 was 25.1 µM (inconclusive) on Cytochrome P450 2C19 and 20 µM (inconclusive) at Cytochrome P450 2D6.

For the molecule `COc1cccc(-c2cncnc2NCc2cccnc2)c1`, on Cytochrome P450 2D6, the concentration at half-maximal activity (AC50) is 20 µM (inconclusive).

For the molecule `FC(F)(F)c1ccccc1-c1nc(NCCN2CCOCC2)c2ccccc2n1`, the AC50 at Cytochrome P450 2D6 is 31.6 µM (inconclusive).

Turning to `Cc1nnc(S)n1/N=C/c1ccc(OCc2ccc(Cl)cc2Cl)cc1`, the half-inhibitory concentration (IC50) in the test “cells” is 43.8 µM (active).

As for `COc1ccc(NN/C=C2/C(=O)NC(=O)N(c3ccc(C)c(C)c3)C2=O)cc1`, the EC50 in [1] was > 120 µM (not active); in [2], 15.2 µM (active); in test [3], > 120 µM (not active). For the same molecule, the AC50 in test [4] is 0.716 µM (active).

As for `CN1CCc2cccc(Cl)c2CC1`, at Cytochrome P450 2D6, the AC50 was 31.6 µM (inconclusive).
